From ChEMBL document CHEMBL6182864, “Design, synthesis and biological evaluation of 3-amino-6-(2-hydroxyphenyl)pyridazin-4-aryl derivatives as SMARCA2/4 degraders” (Eur J Med Chem, 2025)
The source made the active and inactive calls. The rule behind the calls is not given here.

How the values were obtained:
MV4-11 [1] = experiment: Antiproliferative activity against human MV4-11 cells assessed as reduction in cell viability at 100 nM by MTT assay; format: functional, cell-based; settings: time 3-7 day
[2] = Down regulation of SMARCA4 level in human MV4-11 cells at 100 nM measured after 6 hrs by mass spectrometric proteomic analysis relative to control; format: functional
[3] = Down regulation of PBRM1 level in human MV4-11 cells at 100 nM measured after 6 hrs by mass spectrometric proteomic analysis relative to control; format: functional
MOLM-13 [4] = experiment: Cell cycle arrest in human MOLM-13 cells assessed as increase in accumulation of cells at G0/G1 phase measured after 48 hrs by propidium iodide staining based flow cytometry; format: functional; settings: dose 100-1000 nM
MV4-11 [5] = experiment: Induction of apoptosis in human MV4-11 cells assessed as viable cells at 100 nM measured after 72 hrs by Annexin-V-FITC/propidium iodide staining based flow cytometry (reference value: 89.49%); format: functional; settings: read-out: Activity
MV4-11 [6] = experiment: Induction of apoptosis in human MV4-11 cells assessed as necrotic cells at 100 nM measured after 72 hrs by Annexin-V-FITC/propidium iodide staining based flow cytometry (reference value: 0.1%); format: functional
MOLM-13 [7] = experiment: Induction of apoptosis in human MOLM-13 cells assessed as early apoptotic cells at 100 nM measured after 72 hrs by Annexin-V-FITC/propidium iodide staining based flow cytometry (reference value: 5.57%); format: functional
MV4-11 [8] = experiment: Induction of apoptosis in human MV4-11 cells assessed as upregulation of PARP expression measured after 72 hrs by Western blot analysis; format: functional, cell-based; settings: dose 100-1000 nM
MV4-11 [9] = experiment: Induction of apoptosis in human MV4-11 cells assessed as upregulation of cleaved caspase-3 expression measured after 72 hrs by Western blot analysis; format: functional, cell-based; settings: dose 100-1000 nM
MOLM-13 [10] = experiment: Induction of apoptosis in human MOLM-13 cells assessed as upregulation of cleaved caspase-3 expression measured after 72 hrs by Western blot analysis; format: functional, cell-based; settings: dose 100-1000 nM
MV4-11 [11] = experiment: Down regulation of MYC protein expression in human MV4-11 cells at 11.1 to 1000 nM measured after 24 hrs by Western blot analysis; format: functional, cell-based; settings: dose 11.1-1000 nM
MV4-11 [12] = experiment: Down regulation of […] mRNA expression in human MV4-11 cells at 11.1 to 33.3 nM measured after 24 hrs by RT-qPCR analysis; format: functional, cell-based; settings: dose 11.1-33.3 nM
MV4-11 [13] = experiment: Down regulation of […] mRNA expression in human MV4-11 cells at 100 to 1000 nM measured after 24 hrs by RT-qPCR analysis; format: functional, cell-based; settings: dose 100-1000 nM
MV4-11 [14] = experiment: Down regulation of PU.1 mRNA expression in human MV4-11 cells at 11.1 to 1000 nM measured after 24 hrs by RT-qPCR analysis; format: functional, cell-based; settings: dose 11.1-1000 nM
MV4-11 [15] = experiment: Down regulation of BCL-2 mRNA expression in human MV4-11 cells at 11.1 to 1000 nM measured after 24 hrs by RT-qPCR analysis; format: functional, cell-based; settings: dose 11.1-1000 nM
[16] = Cmax in SPF Sprague-Dawley rat at 1 mg/kg, iv by LC-MS/MS analysis; format: ADME, organism-based; settings: in vivo
[17] = Tmax in SPF Sprague-Dawley rat at 1 mg/kg, iv by LC-MS/MS analysis; format: ADME, organism-based; settings: in vivo
[18] = MRT (0 to t) in SPF Sprague-Dawley rat at 10 mg/kg, po by LC-MS/MS analysis; format: ADME, organism-based; settings: in vivo
MV4-11 [19] = experiment: Induction of apoptosis in human MV4-11 cells assessed as early apoptotic cells at 300 nM measured after 72 hrs by Annexin-V-FITC/propidium iodide staining based flow cytometry (reference value: 9.32%); format: functional
MV4-11 [20] = experiment: Induction of apoptosis in human MV4-11 cells assessed as late apoptotic cells at 300 nM measured after 72 hrs by Annexin-V-FITC/propidium iodide staining based flow cytometry (reference value: 1.09%); format: functional
MV4-11 [21] = experiment: Induction of apoptosis in human MV4-11 cells assessed as necrotic cells at 300 nM measured after 72 hrs by Annexin-V-FITC/propidium iodide staining based flow cytometry (reference value: 0.1%); format: functional
MV4-11 [22] = experiment: Induction of apoptosis in human MV4-11 cells assessed as viable cells at 1000 nM measured after 72 hrs by Annexin-V-FITC/propidium iodide staining based flow cytometry (reference value: 89.49%); format: functional; settings: read-out: Activity
MV4-11 [23] = experiment: Induction of apoptosis in human MV4-11 cells assessed as early apoptotic cells at 1000 nM measured after 72 hrs by Annexin-V-FITC/propidium iodide staining based flow cytometry (reference value: 9.32%); format: functional
MOLM-13 [24] = experiment: Induction of apoptosis in human MOLM-13 cells assessed as viable cells at 1000 nM measured after 72 hrs by Annexin-V-FITC/propidium iodide staining based flow cytometry (reference value: 90.28%); format: functional; settings: read-out: Activity
MOLM-13 [25] = experiment: Induction of apoptosis in human MOLM-13 cells assessed as early apoptotic cells at 1000 nM measured after 72 hrs by Annexin-V-FITC/propidium iodide staining based flow cytometry (reference value: 5.57%); format: functional
MDA-MB-231 = experiment: cells; settings: Homo sapiens, MDA-MB-231, 72 h
A2780 = experiment: cells; settings: Homo sapiens, A2780, 72 h
SNU-449 = experiment: cells; settings: Homo sapiens, SNU-449, 72 h
A549 = experiment: cells; settings: Homo sapiens, A549, 72 h

For Cc1ncsc1-c1ccc([C@H](C)NC(=O)[C@@H]2C[C@@H](O)CN2C(=O)[C@@H](NC(=O)C2(c3ccc(-c4cc(-c5ccccc5O)nnc4N)cc3)CC2)C(C)(C)C)cc1, which Activity (MV4-11 [1]) is on record?
Its Activity is “Time-dependent-effect; Complete Reduction Was Achieved On Day 7”.

And the Activity [2]?
The Activity was “>=50%”.

What about the Activity [3] of the same compound?
The Activity was “>=50%”.

What about the Activity (MOLM-13 [4]) of the same compound?
The Activity was “Dose-dependent-effect”.

What about the viability at 0.1 µM (MV4-11 [5]) of the same compound?
Its viability at 0.1 µM is 32.3%.

What about the Activity (MV4-11 [6]) of the same compound?
Its Activity is 1.26%.

And the Activity (MOLM-13 [7])?
Its Activity is 38.84%.

What about the Activity (MV4-11 [8]) of the same compound?
Its Activity is “Dose-dependent-effect”.

And the Activity (MV4-11 [9])?
Its Activity is “Dose-dependent-effect”.

What about the Activity (MOLM-13 [10]) of the same compound?
The Activity was “Dose-dependent-effect”.

And the Activity (MV4-11 [11])?
Its Activity is “Active”.

And the Activity (MV4-11 [12])?
Its Activity is “inactive”.

And the Activity (MV4-11 [13])?
Its Activity is “Active”.

And the Activity (MV4-11 [14])?
Its Activity is “Active”.

What about the Activity (MV4-11 [15]) of the same compound?
Its Activity is “Active”.

What about the Cmax [16] of the same compound?
The Cmax was 1950 ng/mL.

And the Tmax [17]?
Its Tmax is 1.98 min.

What about the MRT last [18] of the same compound?
Its MRT last is 48.6 min.

What about the Activity (MV4-11 [19]) of the same compound?
The Activity was 54.11%.

What about the Activity (MV4-11 [20]) of the same compound?
The Activity was 20.37%.

And the Activity (MV4-11 [21])?
The Activity was 1.1%.

And the viability at 1 µM (MV4-11 [22])?
Its viability at 1 µM is 22.1%.

And the Activity (MV4-11 [23])?
Its Activity is 51.91%.

What about the viability at 1 µM (MOLM-13 [24]) of the same compound?
The viability at 1 µM was 25.7%.

What about the Activity (MOLM-13 [25]) of the same compound?
Its Activity is 57.3%.

And the IC50 (MDA-MB-231)?
Its IC50 is 24.3 µM.

And the IC50 (A2780)?
The IC50 was 1.79 µM.

And the IC50 (SNU-449)?
The IC50 was 21.5 µM.

And the IC50 (A549)?
Its IC50 is 6.02 µM.
